Patent US7915291B2, “Hepatitis C virus inhibitors” (Bristol-Myers Squibb Company, priority 2002, dated 2011)

Legend:
[1] = target: T1, HCV NS3/4A protease complex, H77C strain (Hepatitis C virus genotype 1a, UniProt P27958, C1454S); assay: Recombinant HCV NS3/4A protease complex FRET peptide assay (H77C strain); format: biochemical, HCV genotype 1a
T1 construct: recombinant HCV NS3/4A protease complex (amino acids 1027 to 1711); inferred from pET21b vector and Ni-NTA purification; made in house; host or cells: Escherichia coli BL21 (DE3), pET21b
From the text: Recombinant HCV NS3/4A Protease Complex FRET Peptide Assay
The purpose of this in vitro assay was to measure the inhibition of HCV NS3 protease complexes, derived from the BMS, H77C or J416S strains, as described below, by compounds of the present invention. This assay provides an indication of how effective compounds of the present invention would be in inhibiting HCV proteolytic activity.
Serum from an HCV-infected patient was obtained from Dr. T. Wright, San Francisco Hospital. An engineered full-length cDNA (compliment deoxyribonucleic acid) template of the HCV genome (BMS strain) was constructed from DNA fragments obtained by reverse transcription-PCR(RT-PCR) of serum RNA (ribonucleic acid) and using primers selected on the basis of homology between other genotype 1a strains. From the determination of the entire genome sequence, a genotype 1a was assigned to the HCV isolate according to the classification of Simmonds et al. (See P Simmonds, Kans. Rose, S Graham, S W Chan, F McOmish, B C Dow, E A Follett, P L Yap and H Marsden, J. Clin. Microbiol., 31(6), 1493-1503 (1993)). […]

[2] = target: T2, porcine pancreatic elastase (PPE) (Sus scrofa, UniProt P00772); assay: Specificity assay, PPE; format: biochemical; conditions: 2 hr pre-incubation
T2 construct: purchased Sigma
Description: The specificities of compounds of the present invention were determined against a variety of serine proteases: human leukocyte elastase (HLE), porcine pancreatic elastase (PPE) and human pancreatic chymotrypsin and one cysteine protease: human liver cathepsin B. In all cases a 96-well plate format protocol using colorimetric p -nitroaniline (pNA) substrate specific for each enzyme was used as described previously (Patent WO 00/09543) with some modifications to the serine protease assays. All enzymes were purchased from Sigma while the substrates were from Bachem.
Each assay included a 2 hr enzyme-inhibitor pre-incubation at RT followed by addition of substrate and hydrolysis to ˜30% conversion as measured on a Spectramax Pro microplate reader. Compound concentrations varied from 100 to 0.4 μM depending on their potency. […]
The percentage of inhibition was calculated using the formula: [1−((UVinh−UVblank)/(UVctl−UVblank))]×100 […]

T1 sequence (P27958 1027-1657 C1454S): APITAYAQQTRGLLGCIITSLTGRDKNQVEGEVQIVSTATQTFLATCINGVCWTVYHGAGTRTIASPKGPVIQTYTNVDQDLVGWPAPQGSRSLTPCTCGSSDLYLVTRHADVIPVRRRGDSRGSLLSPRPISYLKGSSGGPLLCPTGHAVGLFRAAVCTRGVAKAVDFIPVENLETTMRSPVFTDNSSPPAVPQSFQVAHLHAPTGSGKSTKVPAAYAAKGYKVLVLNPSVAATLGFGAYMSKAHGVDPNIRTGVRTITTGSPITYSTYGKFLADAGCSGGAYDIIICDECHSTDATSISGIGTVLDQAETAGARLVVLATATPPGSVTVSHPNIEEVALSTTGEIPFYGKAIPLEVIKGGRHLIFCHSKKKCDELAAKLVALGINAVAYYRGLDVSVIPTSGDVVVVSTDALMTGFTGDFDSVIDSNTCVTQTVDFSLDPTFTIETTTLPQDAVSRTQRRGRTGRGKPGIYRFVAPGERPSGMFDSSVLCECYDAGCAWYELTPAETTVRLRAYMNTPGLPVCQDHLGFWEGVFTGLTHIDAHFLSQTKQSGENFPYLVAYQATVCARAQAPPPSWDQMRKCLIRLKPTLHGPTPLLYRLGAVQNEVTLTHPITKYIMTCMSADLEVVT
T1 sequence (P27958 1658-1714 partner, looked up, stated change not applied): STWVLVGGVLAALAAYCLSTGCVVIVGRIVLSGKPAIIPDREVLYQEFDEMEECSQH
T2 sequence (P00772 27-266): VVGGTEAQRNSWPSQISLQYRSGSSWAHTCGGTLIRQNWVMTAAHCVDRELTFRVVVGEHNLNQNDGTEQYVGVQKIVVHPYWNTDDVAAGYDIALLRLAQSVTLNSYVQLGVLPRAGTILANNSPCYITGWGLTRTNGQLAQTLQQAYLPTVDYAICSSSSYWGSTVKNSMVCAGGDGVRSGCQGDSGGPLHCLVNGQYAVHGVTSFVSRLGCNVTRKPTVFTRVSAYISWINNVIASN

`C=C[C@@H]1C[C@]1(NC(=O)[C@@H]1C[C@@H](Oc2nc(C3CC3)cc3ccccc23)CN1C(=O)[C@@H](NC(=O)OC(C)(C)C)C(C)(C)C)C(=O)NS(=O)(=O)C1CC1` [Compound 34] was tested, and the IC50 [1] was 3 nM and the IC50 [2] was > 200000 nM.
